According to patent publication EP4722365A1, “DOUBLE-STRANDED NUCLEOTIDE COMPOUND FOR METABOLIC DISEASES AND USE THEREOF” (Visirna Therapeutics (Suzhou) Co., Ltd., priority 2023, dated 2024):

How the values were obtained:
human DGAT2 = test: Non-alcoholic steatohepatitis induced by a western diet in human DGAT2 carrying mice (Example 9, liver histology scores); assay type: in vivo, mouse; settings: for Ballooning degeneration / Fibrosis score / Grade of steatosis / Lobular inflammation / NAFLD score: B6-hDGAT2 mice, western diet
Protocol: Humanized mice with B6-hDGAT2-TG target and non-alcoholic steatohepatitis model were provided by GemPharmatech LLC. On D0, subcutaneous administration and induction and feeding with western diet were started. On D29, the second injection was performed. Effective period: 8 weeks. 4 mice in one group were sacrificed at 4-week endpoint, and 4 mice in the other group were sacrificed at 8-week endpoint.
Plasma was collected every week to detect the levels of TG, Chol, HDL-C, LDL-C, ALT, and AST, and the liver was stained with HE and NASH score were obtained at the endpoint.

DGAT2 = test: Inhibitory activity on the target gene DGAT2 in non-naive Cynomolgus macaque (Example 10, liver biopsy qPCR); assay type: in vivo
Protocol: The in-vivo experimental designs for subcutaneous injection in non-naive Cynomolgus macaque, the administration and the sample collection method were shown in the table below.
The day of administration to non-naive Cynomolgus macaque was defined as day 1, the day before it was day 0, the day after it was day 2, and so on. Each group had 2 animals. On days 1, 4, 8, 15, 22, 29, 36, 43, 50, and 57, the animals in Groups 1 and 2 were injected with the solvent or 4 mg/kg (0.5mL/kg) of the positive reference compound. On days 1 and 29, the animals in Groups 3 to 7 were injected subcutaneously with 0.5 mL/kg of the test compound.
On day 0 (0 h) before administration by SC, and days 7, 15, 28, 57, and 99 after administration, the liver sample was collected. Collection method: The animals was fasted for 12-16 hrs before sample collection. Collection of liver biopsy tissue: The collection process would be operated and recorded according to the SOP of the research institution. The location of the liver was determined by B ultrasound scan, the right liver was mainly used, and the gallbladder and major blood vessels were avoided. The biopsy needle was inserted under the guidance of the B-ultrasound probe. Guided by the image on the B-ultrasound screen, the needle entered the liver away from the gallbladder and major blood vessels, and the materials were sampled by puncture. After biopsy, the biopsy needle was withdrawn and the samples were collected. The obtained samples were immediately immersed in PBS with RNAlater®, and allowed to stand overnight at 4°C. Then the residual liquid was sucked off, and the remainder was stored at -80°C or below until it was transported in the presence of dry ice and detected.
Trizol was homogenized by Qiagen Tissue Lyser II at 26 Hz for 2 min and lyzed at room temperature for 5 min. 1 mL of the supernatant was taken, added to 200 uL of chloroform, shaken for 15 s, allowed to stand for 3 min, and centrifuged. The supernatant was collected, added with an equal volume of isopropanol, and stood overnight at -20°C for precipitation. The precipitate was washed twice with 70%, and dissolved in water without RNase. The concentration of the RNA sample was determined by Nanodrop ONE and diluted to 200 ng/µL with water without RNase for reverse transcription.
The experimental steps of reverse transcription could be made reference to the instruction of HiScript® III RT SuperMix for qPCR (+gDNA wiper). Briefly, a gDNA removal mixture was prepared according to the table below. A mixture (11 µL/sample) of 4 x gDNA wiper Mix and RNase-Free ddH2O and 1000 ng RNA sample (5 µL RNA sample with a concentration of 200 ng/µL) were added to a 96-well PCR reaction plate, incubated at 42°C for 2 min, and cooled on ice. 4 µL 5 x HiScript III qRT SuperMix and the DNA removed product from the previous step were added to a 96-well PCR reaction plate for reverse transcription. Reaction conditions: 37°C for 15 min; and 85°C for 5 sec. The cDNA was stored at 4°C for further analysis.
The method for detecting the expression levels of DGAT2 and GAPDH genes in the liver of Cynomolgus macaque by quantitative PCR was briefly described as follows: As shown in the table below, a qPCR reaction mixture was prepared, and 2 µL of a cDNA sample diluted 2 times with RNase-free water was added for PCR reaction. Reaction conditions: 95°C for 10 min; and 40 cycles of 95°C for 15 sec, and 60°C for 1 min.
All values were normalized to the average of the group on day 0.

[1] = 3mpk, D0 and D29, 8-week endpoint
[2] = 3mpk, 4-week endpoint, mean ± SEM
[3] = 6mpk, D0 and D29, 8-week endpoint
[4] = 6mpk, 4-week endpoint, mean ± SEM
[5] = 3mpk subcutaneous on days 1 and 29, normalized to day 0
[6] = 10mpk subcutaneous on days 1 and 29, normalized to day 0

dS319: sense (invAb)*acaccauaGfAfCfuauuugcuua[L96]; anti-sense Vpu*Af*a*GfcAfaauagUfcUfaUfgGfuGf* u
Ballooning degeneration (human DGAT2; [1]): 2.0±0.0 | Fibrosis score (human DGAT2; [1]): 0.9±0.1 | Grade of steatosis (human DGAT2; [1]): 1.0±0.0 | Lobular inflammation (human DGAT2; [1]): 1.8±0.2 | NAFLD score (human DGAT2; [1]): 4.8±0.2 | Ballooning degeneration (human DGAT2; [2]): 2.0±0.0 | Fibrosis score (human DGAT2; [2]): 0.5±0.1 | Grade of steatosis (human DGAT2; [2]): 0.7±0.1 | Lobular inflammation (human DGAT2; [2]): 2.2±0.1 | NAFLD score (human DGAT2; [2]): 4.9±0.2 | Ballooning degeneration (human DGAT2; [3]): 1.3±0.1 | Fibrosis score (human DGAT2; [3]): 0.8±0.2 | Grade of steatosis (human DGAT2; [3]): 1.1±0.1 | Lobular inflammation (human DGAT2; [3]): 2.0±0.1 | NAFLD score (human DGAT2; [3]): 4.3±0.0 | Ballooning degeneration (human DGAT2; [4]): 1.3±0.1 | Fibrosis score (human DGAT2; [4]): 0.4±0.1 | Grade of steatosis (human DGAT2; [4]): 0.5±0.2 | Lobular inflammation (human DGAT2; [4]): 1.6±0.2 | NAFLD score (human DGAT2; [4]): 3.4±0.2 | improvement on non-alcoholic steatohepatitis (NASH) by NAFLD activity score (human DGAT2; FIG. 1 legend, hDGAT2 combined with western diet, over 4 weeks): improvement | improvement on fibrosis in non-alcoholic steatohepatitis (human DGAT2; FIG. 2 legend, hDGAT2 combined with western diet, over 4 weeks): improvement | Average inhibition rate, % (D28) (DGAT2; [5]): 86.6% | Average inhibition rate, % (D56) (DGAT2; [5]): 91.1% | Average inhibition rate, % (D99) (DGAT2; [5]): 72.2% | Average inhibition rate, % (D28) (DGAT2; [6]): 96.0% | Average inhibition rate, % (D56) (DGAT2; [6]): 97.9% | Average inhibition rate, % (D99) (DGAT2; [6]): 89.1%
